From ChEMBL document CHEMBL3351378, “Phenyl acetate derivatives, fluorine-substituted on the phenyl group, as rapid recovery hypnotic agents with reflex depression” (Eur J Med Chem, 2015) come the findings set out here.

Activity calls are given as the source filed them. No cut-off for these calls is given here.

The first series concerns Rattus norvegicus. The series can be described thus: Induction of hypnotic activity in iv dosed Sprague-Dawley rat assessed as time duration of loss of righting reflex. Note: test concentration or dose not given here.
Conditions: not given
It counts as functional.
For `CCN(CC)C(=O)COc1c(F)cc(CC(=O)OC(C)C)cc1OC`, the Time was found to be 79.5 s.

On to `CCCOC(=O)Cc1ccc(OCC(=O)N(CC)CC)c(OC)c1F`, for which the Time amounted to 76.6 s.

`CCOC(=O)Cc1ccc(OCC(=O)N(CC)CC)c(OC)c1F`: the Time was 89.8 s.

As to `CCCCOC(=O)Cc1cc(OCC)c(OCC(=O)N(CC)CC)cc1F`, the Time was found to be 158.3 s.

With `CCN(CC)C(=O)COc1ccc(CC(=O)OC(C)C)c(F)c1OC`, the Time worked out at 91.4 s.

For `CCOC(=O)Cc1cc(F)c(OCC(=O)N(CC)CC)c(OC)c1`, the Time amounted to 72 s.

For the molecule `CCCOC(=O)Cc1cc(F)c(OCC(=O)N(CC)CC)c(OCC)c1`, the Time was 76.6 s.

As for `CCCOC(=O)Cc1cc(F)c(OCC(=O)N(CC)CC)c(OC)c1`, the Time is given as 68.9 s.

Turning to `CCOc1cc(CC(=O)OC(C)C)c(F)cc1OCC(=O)N(CC)CC`, the Time stood at 226.2 s.

As to `CCOC(=O)Cc1cc(OC)c(OCC(=O)N(CC)CC)cc1F`, the Time stood at 82.2 s.

Take `CCOc1cc(CC(=O)OCC(F)(F)F)c(F)cc1OCC(=O)N(CC)CC`: the Time stood at 186.1 s.

`CCOc1cc(CC(=O)OC(C)C(F)(F)F)c(F)cc1OCC(=O)N(CC)CC` (centres undefined): the Time is reported as 238.3 s.

In the case of `CCCOC(=O)Cc1cc(OC)c(OCC(=O)N(CC)CC)cc1F`, the Time was found to be 79.3 s.

For `CCOc1cc(CC(=O)OCC(F)(F)F)cc(F)c1OCC(=O)N(CC)CC`, the Time stood at 76.6 s.

Turning to `CC(C)c1cccc(C(C)C)c1O` [PROPOFOL], the Time is recorded as 349.3 s.

On to `CCOc1cc(CC(=O)OC(C)CC)c(F)cc1OCC(=O)N(CC)CC` (centres undefined), for which the Time was determined as 145.3 s.

As to `CCN(CC)C(=O)COc1ccc(CC(=O)OCC(F)(F)F)c(F)c1OC`, the Time stood at 88.7 s.

Tested on in a further series: not listed separately
The experiment in a line: Therapeutic index, ratio of […] for Sprague-Dawley rat by rotarod test to HD50 for hypnotic activity in iv dosed Sprague-Dawley rat. The format is organism-based. Conditions: in vivo, read-out: TI.
For the molecule `CCN(CC)C(=O)COc1c(F)cc(CC(=O)OC(C)C)cc1OC`, the selectivity ratio worked out at 12.4.

For `CCCOC(=O)Cc1ccc(OCC(=O)N(CC)CC)c(OC)c1F`, the selectivity ratio was determined as 8.7.

As for `CCOC(=O)Cc1ccc(OCC(=O)N(CC)CC)c(OC)c1F`, the selectivity ratio amounted to 9.3.

In the case of `CCCCOC(=O)Cc1cc(OCC)c(OCC(=O)N(CC)CC)cc1F`, the selectivity ratio amounted to 11.2.

`CCN(CC)C(=O)COc1ccc(CC(=O)OC(C)C)c(F)c1OC`: the selectivity ratio amounted to 7.9.

Take `CCOC(=O)Cc1cc(F)c(OCC(=O)N(CC)CC)c(OC)c1`: the selectivity ratio amounted to 13.9.

`CCCOC(=O)Cc1cc(F)c(OCC(=O)N(CC)CC)c(OCC)c1`: the selectivity ratio is 11.8.

In the case of `CCCOC(=O)Cc1cc(F)c(OCC(=O)N(CC)CC)c(OC)c1`, the selectivity ratio worked out at 11.2.

Regarding `CCOc1cc(CC(=O)OC(C)C)c(F)cc1OCC(=O)N(CC)CC`, the selectivity ratio turned out to be 12.7.

For the molecule `CCOC(=O)Cc1cc(OC)c(OCC(=O)N(CC)CC)cc1F`, the selectivity ratio was found to be 11.3.

Consider `CCOc1cc(CC(=O)OCC(F)(F)F)c(F)cc1OCC(=O)N(CC)CC`, for which the selectivity ratio came out at 11.5.

In the case of `CCOc1cc(CC(=O)OC(C)C(F)(F)F)c(F)cc1OCC(=O)N(CC)CC` (centres undefined), the selectivity ratio was determined as 10.7.

For `CCCOC(=O)Cc1cc(OC)c(OCC(=O)N(CC)CC)cc1F`, the selectivity ratio turned out to be 12.6.

Take `CCOc1cc(CC(=O)OCC(F)(F)F)cc(F)c1OCC(=O)N(CC)CC`: the selectivity ratio came to 8.7.

Take `CC(C)c1cccc(C(C)C)c1O` [PROPOFOL]: the selectivity ratio was found to be 5.9.

As for `CCOc1cc(CC(=O)OC(C)CC)c(F)cc1OCC(=O)N(CC)CC` (centres undefined), the selectivity ratio was found to be 10.8.

In the case of `CCN(CC)C(=O)COc1ccc(CC(=O)OCC(F)(F)F)c(F)c1OC`, the selectivity ratio amounted to 8.1.

Tested on in another series: not listed separately
The experiment in a line: Toxicity in Sprague-Dawley rat assessed as motor coordination by rotarod test. It counts as organism-based. Conditions: in vivo. A general note: In the rotarod test animals must keep their balance on a rotating rod.
As to `CCN(CC)C(=O)COc1c(F)cc(CC(=O)OC(C)C)cc1OC`, the TD50 amounted to 176 mg/kg.

As for `CCCOC(=O)Cc1ccc(OCC(=O)N(CC)CC)c(OC)c1F`, the TD50 is 169 mg/kg.

For `CCOC(=O)Cc1ccc(OCC(=O)N(CC)CC)c(OC)c1F`, the TD50 is 201 mg/kg.

In the case of `CCCCOC(=O)Cc1cc(OCC)c(OCC(=O)N(CC)CC)cc1F`, the TD50 turned out to be 109 mg/kg.

For the molecule `CCN(CC)C(=O)COc1ccc(CC(=O)OC(C)C)c(F)c1OC`, the TD50 stood at 141 mg/kg.

Consider `CCOC(=O)Cc1cc(F)c(OCC(=O)N(CC)CC)c(OC)c1`, for which the TD50 came out at 239 mg/kg.

Take `CCCOC(=O)Cc1cc(F)c(OCC(=O)N(CC)CC)c(OCC)c1`: the TD50 turned out to be 175 mg/kg.

On to `CCCOC(=O)Cc1cc(F)c(OCC(=O)N(CC)CC)c(OC)c1`, for which the TD50 amounted to 188 mg/kg.

Take `CCOc1cc(CC(=O)OC(C)C)c(F)cc1OCC(=O)N(CC)CC`: the TD50 is 60.9 mg/kg.

Consider `CCOC(=O)Cc1cc(OC)c(OCC(=O)N(CC)CC)cc1F`, for which the TD50 was found to be 113 mg/kg.

With `CCOc1cc(CC(=O)OCC(F)(F)F)c(F)cc1OCC(=O)N(CC)CC`, the TD50 came out at 113 mg/kg.

Turning to `CCOc1cc(CC(=O)OC(C)C(F)(F)F)c(F)cc1OCC(=O)N(CC)CC` (centres undefined), the TD50 is 124 mg/kg.

Regarding `CCCOC(=O)Cc1cc(OC)c(OCC(=O)N(CC)CC)cc1F`, the TD50 is 199 mg/kg.

For `CCOc1cc(CC(=O)OCC(F)(F)F)cc(F)c1OCC(=O)N(CC)CC`, the TD50 was found to be 127 mg/kg.

Regarding `CC(C)c1cccc(C(C)C)c1O` [PROPOFOL], the TD50 worked out at 30.7 mg/kg.

For the molecule `CCOc1cc(CC(=O)OC(C)CC)c(F)cc1OCC(=O)N(CC)CC` (centres undefined), the TD50 came to 90.7 mg/kg.

Regarding `CCN(CC)C(=O)COc1ccc(CC(=O)OCC(F)(F)F)c(F)c1OC`, the TD50 came out at 185 mg/kg.

In the next series the target is Glutamate NMDA receptor (Rattus norvegicus) (UniProt P35439+Q00959+Q00960+Q00961+Q62645+Q8VHN2+Q9R1M7). The experiment in a line: Displacement of [3H]MK801 from NMDA receptor in Sprague-Dawley rat cerebral cortex membrane at 50 umol by liquid scintillation counting. It counts as tissue-based.
Conditions: not given
On the technique in general: Loss of bound radioactivity is the signal in a displacement assay; it reports binding, not function.
For the molecule `CCN(CC)C(=O)COc1c(F)cc(CC(=O)OC(C)C)cc1OC`, the outcome was inactive.

Take `CCCOC(=O)Cc1ccc(OCC(=O)N(CC)CC)c(OC)c1F`: the result was inactive.

Regarding `CCOC(=O)Cc1ccc(OCC(=O)N(CC)CC)c(OC)c1F`, the outcome was inactive.

In the case of `CCCCOC(=O)Cc1cc(OCC)c(OCC(=O)N(CC)CC)cc1F`, the result was inactive.

As for `CCN(CC)C(=O)COc1ccc(CC(=O)OC(C)C)c(F)c1OC`, the result was inactive.

For the molecule `CCOC(=O)Cc1cc(F)c(OCC(=O)N(CC)CC)c(OC)c1`, the outcome was inactive.

In the case of `CCCOC(=O)Cc1cc(F)c(OCC(=O)N(CC)CC)c(OCC)c1`, the result was inactive.

For `CCCOC(=O)Cc1cc(F)c(OCC(=O)N(CC)CC)c(OC)c1`, the outcome was inactive.

For `CCOc1cc(CC(=O)OC(C)C)c(F)cc1OCC(=O)N(CC)CC`, the result was inactive.

On to `CCOC(=O)Cc1cc(OC)c(OCC(=O)N(CC)CC)cc1F`, for which the outcome was inactive.

Take `CCOc1cc(CC(=O)OCC(F)(F)F)c(F)cc1OCC(=O)N(CC)CC`: the result was inactive.

Turning to `CCOc1cc(CC(=O)OC(C)C(F)(F)F)c(F)cc1OCC(=O)N(CC)CC` (centres undefined), the result was inactive.

`CCCOC(=O)Cc1cc(OC)c(OCC(=O)N(CC)CC)cc1F`: the outcome was inactive.

In the case of `CCOc1cc(CC(=O)OCC(F)(F)F)cc(F)c1OCC(=O)N(CC)CC`, the result was inactive.

As for `CCOc1cc(CC(=O)OC(C)CC)c(F)cc1OCC(=O)N(CC)CC` (centres undefined), the outcome was inactive.

For the molecule `CCN(CC)C(=O)COc1ccc(CC(=O)OCC(F)(F)F)c(F)c1OC`, the result was inactive.

In a further series the test system is Rattus norvegicus. The experiment in a line: Induction of hypnotic activity in iv dosed Sprague-Dawley rat assessed as loss of righting reflex. The format is functional.
Conditions: not given
As for `CCN(CC)C(=O)COc1c(F)cc(CC(=O)OC(C)C)cc1OC`, the HD50 came out at 14.2 mg/kg.

For the molecule `CCCOC(=O)Cc1ccc(OCC(=O)N(CC)CC)c(OC)c1F`, the HD50 amounted to 19.4 mg/kg.

For `CCOC(=O)Cc1ccc(OCC(=O)N(CC)CC)c(OC)c1F`, the HD50 worked out at 21.6 mg/kg.

On to `CCCCOC(=O)Cc1cc(OCC)c(OCC(=O)N(CC)CC)cc1F`, for which the HD50 worked out at 9.7 mg/kg.

In the case of `CCN(CC)C(=O)COc1ccc(CC(=O)OC(C)C)c(F)c1OC`, the HD50 was determined as 17.9 mg/kg.

Regarding `CCOC(=O)Cc1cc(F)c(OCC(=O)N(CC)CC)c(OC)c1`, the HD50 turned out to be 17.2 mg/kg.

As for `CCCOC(=O)Cc1cc(F)c(OCC(=O)N(CC)CC)c(OCC)c1`, the HD50 came out at 14.8 mg/kg.

`CCCOC(=O)Cc1cc(F)c(OCC(=O)N(CC)CC)c(OC)c1`: the HD50 was 16.8 mg/kg.

Consider `CCOc1cc(CC(=O)OC(C)C)c(F)cc1OCC(=O)N(CC)CC`, for which the HD50 is 4.8 mg/kg.

Take `CCOC(=O)Cc1cc(OC)c(OCC(=O)N(CC)CC)cc1F`: the HD50 turned out to be 10 mg/kg.

With `CCOc1cc(CC(=O)OCC(F)(F)F)c(F)cc1OCC(=O)N(CC)CC`, the HD50 amounted to 9.8 mg/kg.

For the molecule `CCOc1cc(CC(=O)OC(C)C(F)(F)F)c(F)cc1OCC(=O)N(CC)CC` (centres undefined), the HD50 was found to be 11.6 mg/kg.

Take `CCCOC(=O)Cc1cc(OC)c(OCC(=O)N(CC)CC)cc1F`: the HD50 stood at 15.8 mg/kg.

In the case of `CCOc1cc(CC(=O)OCC(F)(F)F)cc(F)c1OCC(=O)N(CC)CC`, the HD50 came to 14.6 mg/kg.

Turning to `CC(C)c1cccc(C(C)C)c1O` [PROPOFOL], the HD50 came to 5.3 mg/kg.

With `CCOc1cc(CC(=O)OC(C)CC)c(F)cc1OCC(=O)N(CC)CC` (centres undefined), the HD50 was determined as 8.4 mg/kg.

As to `CCN(CC)C(=O)COc1ccc(CC(=O)OCC(F)(F)F)c(F)c1OC`, the HD50 turned out to be 22.8 mg/kg.

Usually TD50 stands for the dose at which the toxic effect under study appears in half of the subjects.
